For one data set, the system named is Candida albicans 138. Description: microbe, parasite or virus in culture. Conditions: 37 °C; for MIC50 / MIC90: C. albicans 138 (fluconazole-resistant clinical isolate), RPMI 1640/MOPS pH 7.0, 24 h, triplicate; for MIC50: at least 50% growth inhibition vs growth control; for MIC90: lowest concentration with no visible growth. In short, it runs like this:
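Values come from modified CLSI M27-A3 broth microdilution at 37 °C for 24 h. Medium was RPMI 1640 with L-glutamine, no bicarbonate, buffered with 0.165 M MOPS to pH 7.0. Final DMSO was about 1%.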

For the next data set, the system named is Candida albicans SC 5314. Description: microbe, parasite or virus in culture. Conditions: C. albicans SC 5314, 37 °C; for MIC50 / MIC90: RPMI 1640/MOPS pH 7.0, 24 h, triplicate; for MIC50: at least 50% growth inhibition vs growth control; for MIC90: lowest concentration with no visible growth; for MFC: aliquots plated on YPD agar, 24 h, lowest concentration with no colony growth. In short, it runs like this: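 Broth microdilution per CLSI M27-A3 with minor modifications, in RPMI 1640 buffered to pH 7.0 with 0.165 M MOPS, 24 h at 37 °C, about 1% DMSO final, triplicate. B3 is a fluconazole-sensitive early isolate used to assess efflux-transporter removal.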

Data set [1] is described as follows: MTT cytotoxicity assay. To be noted: human. The protocol:
(§1) The assessment of antifungal potential of synthesized agents was carried out using four reference strains (C. albicans ATCC 10231, C. albicans SC5314, C. glabrata DSM […] and C. krusei DSM […]) and six clinical isolates of fluconazole-resistant C. albicans that were provided by the Hospital of Medical University of Gdansk, Poland. Moreover, four C. albicans isolates, assigned as B3, B4, Gu4 and Gu5, were used for investigation whether the synthesized fluconazole derivatives were effectively removed from the yeast cells by the drug efflux transporters, as in the case of fluconazole. These strains were kindly provided by Prof. Joachim Morschhäuser from University of Würzburg (Würzburg, Germany). Strains Gu4 and B3 were fluconazole-sensitive isolates obtained from early infection episodes, while Gu5 and B4 were the corresponding fluconazole-resistant isolates obtained from later episodes in the same patients treated with fluconazole. The lack of susceptibility of the Gu5 strain to fluconazole was a consequence of overexpression of CDR1/2 genes encoding ABC transporters, whereas the resistance of B4 strain was caused by overexpression of the MDR1 gene encoding a membrane transport protein of the major facilitator superfamily (MFS). All of these Candida spp. strains were maintained on YPD agar plates (1% (w/v) yeast extract, 2% (w/v) peptone, 2% (w/v) glucose, 2% (w/v) agar) at 30 °C for 16–24 h. For all of the assays aimed at assessing the antifungal potential of the synthesized agents, the yeasts were cultivated at 37 °C in RPMI 1640 medium (with L-glutamine, without sodium bicarbonate, Sigma-Aldrich, Darmstadt, Germany)) buffered to a pH of 7.0 with 0.165 M morpholinepropanesulfonic acid (MOPS) buffer (Sigma-Aldrich). In this study, we used the human foreskin fibroblast cell line Hs27 (ATCC CRL 1634TM) and the human endothelial cell line HUVEC (C2519A), purchased from Lonza Group AG, (Basel, Switzerland). The Hs27 cells were maintained in cell media consisting of Dulbecco’s modified Eagles medium (DMEM), (Corning, Arizona, USA) with 10% fetal bovine serum (FBS), (Corning, Port Elizabeth, South Africa), 1% penicillin/streptomycin (Sigma-Aldrich Inc., Darmstadt, Germany), and 1% L-glutamine (Corning, Arizona, USA). The human endothelial cell line was maintained in cell media consisting of Endothelial Cell Growth Medium-2 Single Quots Kit (Lonza, USA). Both cell lines were cultured in an incubator at 37 °C and 5% CO2.
(§2) Hs27 and HUVEC mammalian cell lines were cultured as mentioned above. Once cell lines were about 80% confluent, cells were counted by a hemacytometer (Hausser Scientific, Horsham, PA, USA) and plated in 96-well microtiter plates at concentrations of 4500 cells per well for Hs27 and 2000 cells per well for HUVEC. Cells were allowed to attach overnight. […] The final concentration of DMSO was ensured to be around 1% in all experiments. Cells were incubated with studied compounds for 72 h at 37 °C and 5% CO2. After incubation, 20 µL of MTT solution in PBS (4 mg/mL) was added to all wells and incubated further for 3 h at 37 °C. Formed formazan crystals were dissolved in 150 µL DMSO, and absorbance was measured using an Asys UVM340 multi-well plate reader at λ = 540 nm. Cytotoxicity was determined compared to drug-free control. All experiments were performed in biological triplicates.
A general note: Formazan colour is commonly taken as a measure of viable cells.

Data set [2] concerns Hs27 cells (human foreskin fibroblast cell line). The data set is described as follows: MTT cytotoxicity assay. As to the method:
as §1, §2

Data set [3] is described as follows: MTT cytotoxicity assay. To be noted: human. As to the method: as §1, §2
This is another data set of the same source.

For data set [4], the system named is HUVEC cells (human umbilical venous endothelial primary cells). Description: MTT cytotoxicity assay. As to the method:
as §1, §2

The test system of data set [5] is Candida spp. strains tested. The data set is described as follows: Antifungal activity against the whole panel of strains tested. The class given is cell-based. Conditions: panel of Table 2, 8–250 µM. As to the method: Antifungal activity of the tested compounds against yeast cells was determined in 96-well plates as described in the CLSI document M27-A3 [39], with minor modifications (CLSI, 2008). Suspensions of the microorganisms were prepared by taking one loop of pure culture into sterile water and adjusting optical density to 0.1 at 660 nm wavelength and further 50-fold dilution in RPMI 1640 medium, resulting in cell concentration of approximately 2 × 10^4 CFU/mL [21]. Then, 100 μL of cells were added to the wells of a 96-well microtiter plate that contained 16–500 μM tested compounds and 16–500 μM of FLC or 0.2–62 μM AmB. The plates were incubated for 24 h at 37 °C. Each test was performed in triplicate. […] The MIC90 was defined as the lowest concentration of drug showing no visible growth; MIC50 was defined as the concentration that yielded at least 50% growth inhibition when compared with the growth control well.

Data set [6] relates to C. albicans SC5314. Description: Membrane permeabilization assay by propidium iodide uptake (flow cytometry, fluorescence microscopy). Type of data set: cell-based, Candida albicans. As to the method: Suspensions of C. albicans SC5314 were prepared by taking one loop of pure culture growth from 24 h YPD agar plates into RPMI 1640 medium and adjusting optical density to 0.1 at 660 nm wavelength. […] The cell suspensions were then treated for 0.5, 2, 4, 6, and 24 h at 37 °C with continuous agitation (180 rpm). The cells were then centrifuged and resuspended in 200 µL of PBS buffer (pH 7.4). Subsequently, cells were treated with propidium iodide (1 mg/mL, final concentration) and incubated for 30 min at room temperature in the dark. Cellular fluorescence was visualized using lens 20×, using Olympus Fluorescence Microscope BX60 (Olympus, Tokyo, Japan). The images were also post-processed utilizing cell Sens program. The fluorescence intensity emitted by DNA-bound propidium iodide was measured using a flow cytometer (Merck Millipore guava easyCyte 8, Darmstadt, Germany). Data were obtained from at least two independent experiments.
(In general: In flow cytometry, cells or beads pass a laser one at a time.)

Data set [7] concerns C. albicans SC5314. Conditions: C. albicans SC5314, 1 × MFC, time-kill over 24 h, RPMI 1640, 37 °C.
Protocol: Antifungal time-kill studies were carried out by a method previously described and evaluated by Klepser et al. [40]. A starting inoculum was prepared by inoculating a tube of sterile water with growth from 24 h YPD agar plates (C. albicans SC5314), and OD660 was adjusted to about 0.1 (around 10^6 cells per 1 mL). […] A negative control (growth medium without drug or organism) was also included at each time of testing. Tubes were incubated at 37 °C on an orbital shaker and vortexed before removing a sample for the determination of colony counts. After the appropriate time of incubation (0.5, 2, 4, 6, and 24 h), 1 mL of each suspension was centrifuged (2 min, 9170× g), and the pellet was re-suspended in 1 mL of PBS pH 7.4. Ten-fold serial dilutions with PBS were prepared, and 100 μL of each was inoculated on YPD agar plates in duplicate. Plates were incubated for 24 h at 37 °C. Colony forming units in the range of 30–300 were counted (on the plates containing from 30 to 300 colonies) and the number of yeast cells in 1 mL (CFU/mL) was calculated [21].
Where [8] appears, read: Hs27 cells, MTT, 72 h, 37 °C, 100–1.5 μM, biological triplicates.
The mark [9] stands for this setting: HUVEC cells, MTT, 72 h, 37 °C, 100–1.5 μM, biological triplicates.

The record followed here is PMC9026428, “New Peptide Based Fluconazole Conjugates with Expanded Molecular Targets” (Pharmaceutics, 2022).

In brackets after ≈: the same amount, converted by molar mass. Like-named read-outs stand apart in the source and are kept apart here. Non-standard residues stand in square brackets, D forms with d. Residues, ends and D or L forms follow the SMILES beside them. *: point of attachment. X1 = O=C(CCCC(=O)*)OC(Cn1cncn1)(Cn1cncn1)c1ccc(F)cc1F; Nle = CCCC[C@H](N)C(=O)O

For the molecule `CSCC[C@H](NC(=O)[C@H](CCCNC(=N)N)NC(=O)[C@H](Cc1c[nH]c2ccccc12)NC(=O)[C@H](CCC(N)=O)NC(=O)[C@H](Cc1c[nH]c2ccccc12)NC(=O)[C@H](CCCNC(=N)N)NC(=O)[C@H](CCCNC(=N)N)NC(=O)[C@H](CS)NC(=O)[C@H](CCCCN)NC(=O)[C@H](Cc1ccccc1)NC(=O)CCCC(=O)OC(Cn1cncn1)(Cn1cncn1)c1ccc(F)cc1F)C(N)=O` [FLCpOH-LFacinB(2-11)-NH2] (X1-FKCRRWQWRM-NH2), the MIC50 with Candida albicans 138 is on record as 190 µM (≈ 361 µg/mL); with Candida albicans SC 5314 it was 62 µM (≈ 118 µg/mL). For the same molecule, the MIC90 with Candida albicans 138 stood at 250 µM (≈ 475 µg/mL); in the data set with Candida albicans SC 5314, 125 µM (≈ 237 µg/mL). The MFC – broadly, the lowest tested concentration that kills the fungus rather than only halting it – in the data set with Candida albicans SC 5314 came to 250 µM (≈ 475 µg/mL). Besides, the IC50 at 72 h in “MTT cytotoxicity assay [1]” and in the data set “MTT cytotoxicity assay [3]” was greater than 100 µM throughout. Moreover, the “In vitro cytotoxicity IC90 ± SEM” value in data set [2] (setting [8]) and in data set [4] (setting [9]) was greater than 100 µM each time. Moreover, the “antifungal activity against the strains tested, in words” value (shortened to “antifungal activity”) in [5] is on record as “moderately or poorly active”.

Regarding `CC[C@H](C)[C@H](NC(=O)[C@H](CCCCN)NC(=O)[C@H](CCCCN)NC(=O)[C@H](C)NC(=O)[C@H](CC(C)C)NC(=O)[C@H](C)NC(=O)[C@H](C)NC(=O)[C@H](CC(C)C)NC(=O)[C@H](C)NC(=O)[C@H](CCCCN)NC(=O)[C@H](CC(C)C)NC(=O)[C@H](CC(N)=O)NC(=O)[C@@H](NC(=O)[C@H](CCCCN)NC(=O)CNC(=O)[C@H](CC(C)C)NC(=O)[C@H](CC(C)C)NC(=O)[C@H](Cc1ccc(O)cc1)NC(=O)CNC(=O)[C@H](C)NC(=O)CCCC(=O)OC(Cn1cncn1)(Cn1cncn1)c1ccc(F)cc1F)[C@@H](C)CC)C(=O)N[C@@H](CC(C)C)C(N)=O` [FLCpOH-TP10-NH2], the MIC50 in the data set on Candida albicans 138 came out at 45 µM (≈ 116 µg/mL); against Candida albicans SC 5314, 8 µM (≈ 20.7 µg/mL). Also, the MIC90 was determined as 62 µM (≈ 160 µg/mL) against Candida albicans 138 and 15 µM (≈ 38.8 µg/mL) against Candida albicans SC 5314. The MFC in the data set on Candida albicans 138 (C. albicans 138, aliquots plated on YPD agar, 24 h, lowest concentration with no colony growth) is 250 µM (≈ 646 µg/mL); with Candida albicans SC 5314, 31 µM (≈ 80.1 µg/mL). Besides, the “In vitro cytotoxicity IC90 ± SEM” value in [2] (setting [8]) was 28.81 ± 0.87 µM; in [4] (setting [9]), 34.30 ± 1.00 µM. In addition, the “cell membrane disruption (PI uptake), in words” value in the data set on C. albicans SC5314 [6] was “significant cell membrane damage”. The “reduction in yeast cell count” value in the data set on C. albicans SC5314 [7] came out at 1 log10.

Turning to `CSCC[C@H](NC(=O)[C@H](C)NC(=O)[C@H](CCCNC(=N)N)NC(=O)[C@H](CCCCN)NC(=O)[C@H](Cc1c[nH]c2ccccc12)NC(=O)[C@H](CCC(N)=O)NC(=O)[C@H](Cc1ccccc1)NC(=O)[C@H](CS)NC(=O)CCCC(=O)OC(Cn1cncn1)(Cn1cncn1)c1ccc(F)cc1F)C(=O)N[C@@H](CCCNC(=N)N)C(=O)N[C@@H](CCCCN)C(=O)N[C@H](C(=O)N[C@@H](CCCNC(=N)N)C(N)=O)C(C)C` [FLCpOH-HLopt2-NH2] (X1-CFQWKRAMRKVR-NH2), the figures for the MIC50 against Candida albicans 138 and in the data set on Candida albicans SC 5314 were greater than 250 µM and 62 µM (≈ 125 µg/mL), respectively. The MIC90 with Candida albicans 138 is greater than 250 µM; with Candida albicans SC 5314, 125 µM (≈ 251 µg/mL). Also, the IC50 at 72 h in “MTT cytotoxicity assay [1]” and in the data set “MTT cytotoxicity assay [3]” was greater than 100 µM throughout. Further, the “In vitro cytotoxicity IC90 ± SEM” value in data set [2] (setting [8]) and in data set [4] (setting [9]) was greater than 100 µM in each case. The “antifungal activity” value in data set [5] was “moderately or poorly active”.

`CCCC[C@H](NC(=O)CCCC(=O)OC(Cn1cncn1)(Cn1cncn1)c1ccc(F)cc1F)C(=O)N[C@@H](Cc1ccccc1)C(=O)N[C@@H](CCCCN)C(=O)N[C@@H](CS)C(=O)N[C@@H](CCCNC(=N)N)C(=O)N[C@@H](CCCNC(=N)N)C(=O)N[C@@H](Cc1c[nH]c2ccccc12)C(=O)N[C@@H](CCC(N)=O)C(=O)N[C@@H](Cc1c[nH]c2ccccc12)C(=O)N[C@@H](CCCNC(=N)N)C(=O)N[C@@H](CCCC)C(=O)N[C@@H](CCCCN)C(=O)N[C@@H](CCCCN)C(=O)N[C@@H](CC(C)C)C(=O)NCC(N)=O` [FLCpOH-LFacinB[Nle^1,11]-NH2] (X1-[Nle]FKCRRWQWR[Nle]KKLG-NH2): the MIC50 against Candida albicans 138 and with Candida albicans SC 5314 was 23 µM (≈ 55.7 µg/mL) throughout. Further, the MIC90 against Candida albicans 138 and against Candida albicans SC 5314 was 31 µM (≈ 75 µg/mL) each time. The same molecule gave an MFC against Candida albicans SC 5314 of 250 µM (≈ 605 µg/mL). Also, the IC50 – broadly, the concentration at which inhibition is half-maximal – at 72 h is greater than 100 µM in “MTT cytotoxicity assay [1]” and 75.6 ± 1.73 µM in the data set “MTT cytotoxicity assay [3]”. Further, the “In vitro cytotoxicity IC90 ± SEM” value in data set [2] (setting [8]) and in data set [4] (setting [9]) was greater than 100 µM in each case. Besides, in data set [5], the “antifungal activity” value is “moderately or poorly active”.

For `O=C(O)CCCC(=O)OC(Cn1cncn1)(Cn1cncn1)c1ccc(F)cc1F` [FLCpOH], the MIC50 in the data set with Candida albicans 138 and against Candida albicans SC 5314 was greater than 250 µM in each case. In addition, the MIC90 in the data set with Candida albicans 138 and with Candida albicans SC 5314 was greater than 250 µM throughout. The IC50 in data set [2] and in [4] was greater than 100 µM in each case. For the same molecule, the “In vitro cytotoxicity IC90 ± SEM” value in data set [2] and in data set [4] was greater than 100 µM throughout. In [5], the “antifungal activity” value was “did not exert any antifungal activity”.
